Measured values: patent US11998585B2, “Methods and compositions for increasing the dose of a chemotherapeutic agent” (Stealth BioTherapeutics Inc., priority 2012, dated 2024)
Entries after “also recorded” stand apart in the source; their conditions may differ.

Test system: vincristine-induced hyperalgesia in rats
Test: Vincristine-induced hyperalgesia in rats, electronic Von Frey test (paw-withdrawal threshold)
Format: in vivo, Sprague Dawley rats
Procedure: Female Sprague Dawley rats were divided randomly into 5 groups (n=10), according to Table 7. Groups 2-4 were administered Vincristine 0.10 mg/kg injected intravenously (i.v.) via tail vein followed by a bolus injection of 0.1 ml PBS vehicle, once daily for 14 days. Group 1 was administered 1 ml/kg PBS vehicle alone according to the same schedule. D-Arg-2′6′-dimethyltyrosine-Lys-Phe-NH2 10 mg/kg was administered subcutaneously (s.c.) 15 minutes prior to vincristine administration for the full 14-day period (Group 3), or for a period of two weeks beginning at day 15 (Group 4). Group 5 was administered Vincristine 0.10 mg/kg injected i.v. via tail vein, followed by a bolus injection of 0.1 ml PBS vehicle once daily for 28 days, and D-Arg-2′6′-dimethyltyrosine-Lys-Phe-NH2 10 mg/kg administered s.c. for a period of 14 days beginning at day 15.
Mechanical nociceptive threshold of paw-withdrawal was measured every two days using an electronic Von Frey test. Results are shown in FIG. 1 and FIG. 2 as means±SEM. One-way ANOVA with post-hoc test or t-test were used to assess the statistical significance, with p<0.05 is considered statistically significant. In FIG. 1, data for subjects receiving vincristine in the absence of simultaneous D-Arg-2′6′-dimethyltyrosine-Lys-Phe-NH2 (Groups 2, 4, 5) is shown collectively as “Group A.”

## D-Arg-2′6′-dimethyltyrosine-Lys-Phe-NH2
FIG. 2, rats, Groups 4 and 5
  treatment of vincristine-induced hyperalgesia: effective in the treatment of vincristine-induced hyperalgesia in rats
Group 3: peptide 10 mg/kg s.c. daily 15 min prior to vincristine 0.10 mg/kg i.v. for 14 days, vs vehicle-only control (Group 1), FIG. 1
  pain threshold (mechanical nociceptive threshold of paw-withdrawal), prevention: not significantly different from the vehicle-only control; also recorded: effective in the prevention of vincristine-induced hyperalgesia in rats
Group 4: vincristine 0.10 mg/kg i.v. 14 days, then peptide 10 mg/kg s.c. daily for two weeks beginning at day 15, FIG. 2
  pain threshold (mechanical nociceptive threshold of paw-withdrawal), treatment after withdrawal of vincristine: improved pain threshold as soon as day 15, with continued improvement through day 25
Group 5: vincristine 0.10 mg/kg i.v. 28 days, peptide 10 mg/kg s.c. daily for 14 days beginning at day 15, FIG. 2
  pain threshold (mechanical nociceptive threshold of paw-withdrawal), treatment while vincristine continues: an arrest of the downward trend in pain threshold evident in the initial 14 day period, followed by an improvement in pain threshold beginning at day 16

## CC[C@]1(O)C[C@H]2CN(CCc3c([nH]c4ccccc34)[C@@](C(=O)OC)(c3cc4c(cc3OC)N(C=O)[C@H]3[C@@](O)(C(=O)OC)[C@H](OC(C)=O)[C@]5(CC)C=CCN6CC[C@]43[C@@H]65)C2)C1 [vincristine, reference compound]
Group 2: vincristine 0.10 mg/kg i.v. 14 days + PBS vehicle, followed after day 14, FIG. 2
  pain threshold after withdrawal of vincristine, no peptide: continued to show a decline in pain thereshold, reaching a low point at day 21, and showed a moderate improvement beginning at day 22
Vincristine 0.10 mg/kg i.v. daily for 14 days without peptide, vs vehicle-only control (Group 1)
  pain threshold (mechanical nociceptive threshold of paw-withdrawal) under vincristine: a decrease in pain threshold response compared to a vehicle-only control
